“Also recorded” adds a separate entry of the source.
Key:
[1] = tested on: Pancreatic Ductal Adenocarcinoma #03; test: Evaluation against early stage pancreatic ductal adenocarcinoma #03 in BDF mice; assay type: in vivo
Description: Male BDF mice (12 weeks old, weight approximately 28.9 g) were implanted with the pancreatic ductal cell carcinoma #03 3 days before beginning treatment with (HO)2DEHSPM.

exocrine pancreas [2] = test: Beagle study Part B: comparison of (R,R)- v. (S,S)-(HO)2DEHSPM; assay type: in vivo, beagles
Description: As the pancreatic insufficiency side-effect that was observed after the administration of the (R,R)—(HO)2DEHSPM to the beagles may have been related to the (R,R)-chirality of the molecule, the (S,S)-enantiomer was synthesized and was compared in a head-to-head fashion with the (R,R)-enantiomer. To perform this experiment, five male beagles approximately 6-8 months of age were obtained from Harlan Sprague Dawley. There were provided with food and water ad libitum and were allowed to acclimate to their new surroundings for two weeks. The animals were weighed prior to starting drug administration and were weighed once per week during the drug dosing period. A CBC and chemistry panel and a Holter monitor were performed once per week. In addition to the usual tests, additional pancreatic function-specific tests were also performed. These additional evaluations included a fecal trypsin test, examination of the feces for fecal fat and serum trypsin-like immunoreactivity determinations. It was hoped that these signs of pancreatic insufficiency would only appear in the animals given the (R,R)-enantiomer and would not be observed in the dogs that were given the (S,S)-molecule. The pancreatic insufficiency may not become evident until approximately 7-8 weeks post-drug. At the conclusion of the experiment, all of the animals were sacrificed and the histology and tissue polyamine levels were determined.
Five male beagles approximately 6-8 months of age were obtained from Harlan Sprague Dawley. They were provided with food and water ad libitum and were allowed to acclimate to their new surroundings for two weeks. Once two sets of baseline data were obtained, the animals were randomly divided into three groups: two of the dogs (#468 and 500) received the (R,R)—(HO)2DEHSPM; two of the animals (#440 and 476) were given (S,S)—(HO)2DEHSPM; and one dog (#452) served as an untreated (saline only) control. The dogs were given the (R,R)—or (S,S)—(HO)2DEHSPM at a dose of 4.3 mg/kg/day subcutaneously in divided doses, 2.15 mg/kg BID.
The animals were weighed weekly during the acclimation period, the drug dosing period and throughout the post-drug observational period. A CBC, chemistry panel and pancreatic function tests (trypsin-like immunoreactivity, fecal trypsin, fecal fat, etc.) were performed once per week. Additional tests, e.g., glucose tolerance and fat absorption, were performed as necessary. The dogs were Holter monitored twice during the acclimation period and then weekly during drug dosing.

[3] = tested on: native polyamine levels in AR42J cells; test: Polyamine pool analysis in AR42J cells; assay type: cell-based; conditions: 5 μm analogue
Procedure: In addition, the effect of (OH)2DEHSPM on the native polyamine levels in this cell line was evaluated.

[4] = Beagle study Part A: long-term toxicity and pancreatic function after (R,R)-(HO)2DEHSPM; assay type: in vivo, beagles; conditions: for SGPT / alkaline phosphatase: approximately 60-days post-drug
Procedure: (§1) Five male beagles approximately 6-8 months of age were obtained from Harlan Sprague Dawley. They were provided with food and water ad libitum and were allowed to acclimate to their new surroundings for two weeks. The animals were weighed prior to starting drug administration and were weighed once per week during the drug dosing period. A CBC and chemistry panel were performed every 1-2 weeks. The drug study was performed in two stages. In the first phase, three animals were given the drug at 2.15 mg/kg/day (dogs #516, 518 and 526). In the second phase, the other two dogs were given the drug at 4.3 mg/kg/day (dogs #490 and 494). In both experiments, the daily drug dose was divided and administered twice daily at 12-hour intervals.
(§2) The results of the long-term washout and subsequent toxicity of the (R,R)—(HO)2DEHSPM are summarized. Briefly, the drug was initially thought to be well tolerated at the 2.15 mg/kg/day dose. In order to compare the long-term washout of the (HO)2DEHSPM as compared to DEHSPM, it was decided not to sacrifice the animal (#516) until 75-days post-drug. […] Chronic pancreatitis or intestinal malabsorption was suspected. […] Inasmuch as the dog was imminently scheduled for sacrifice, no treatment was initiated. At necropsy 75-days post-drug, there was little, if any, abdominal fat and the animal's pancreas was atrophied as described below.
(§3) However, approximately 55-60 days post-drug, it was noted that although the dogs in the 4.3 mg/kg/day group (#490 and 494) were eating well and were bright, alert and responsive, they began losing weight (2 kg). […] In order to further confirm the exocrine pancreatic insufficiency, additional experiments were performed.
(§4) The two dogs (#490 and 494) were fed a prescription canned and dry dog food and were supplemented with Viokase, a pancreatic enzyme preparation, by mixing three tablets with food or by oral administration immediately before each feeding. The dogs were maintained on this regimen for approximately three weeks. During this time, their weight and blood chemistries were closely monitored. The Viokase supplementation was then stopped and the same parameters were again evaluated. One week after the Viokase administration had ceased, the animals were euthanized and tissues were taken for histology and for the determination of tissue polyamine levels.

exocrine pancreas [5] = test: as above; assay type: in vivo, beagles
Procedure: as §1, §2, §3, §4

[6] = Non-tumor-bearing toxicity controls, same regimens; assay type: in vivo; conditions: group 3, NTB; IV QD 3, 4, 6-9, 14, 17, 18; total dosage 240 mg/kg
[7] = group 2, total dosage 240 mg/kg IV
[8] = group 4, total dosage 205 mg/kg IV
[9] = group 6, total dosage 102.5 mg/kg IV
[10] = 4.3 mg/kg/day sc for 13 days, post-drug
[11] = approximately five weeks post-drug, 4.3 mg/kg/day sc for 13 days
[12] = dog #468, 4.3 mg/kg/day sc for 13 days
[13] = dog #500, 4.3 mg/kg/day sc for 13 days
[14] = dog #516, 2.15 mg/kg/day, approximately two months post-drug
[15] = dogs #490 and 494, 4.3 mg/kg/day, approximately 55-60 days post-drug

CCNCC[C@@H](O)CNCCCCNC[C@H](O)CCNCC.Cl.Cl.Cl.Cl [(R,R)-(HO)2DEHSPM, N^1,N^14-Diethyl-3(R) 12(R)-dihydroxyhomospermine tetrahydrochloride]
Percent Body Wt. Loss ([1]; group 2, tumor-bearing, IV QD 3, 4, 6-9, 14, 17, 18, total dosage 240 mg/kg): 38% | Drug Deaths (days of death) ([1]; group 2, tumor-bearing, total dosage 240 mg/kg IV): none of the mice died | Comments [1, 7]: Inactive | Median Tumor Burden (mg) on day 18 (range) [1, 7]: 651 (138-1324) mg | Tumor Free on Day [1, 7]: 0/5 | T/C % ([1]; group 2, total dosage 240 mg/kg IV, tumor burden vs control): 64% | Percent Body Wt. Loss ([1]; group 4, tumor-bearing, IV QD 3-18, total dosage 205 mg/kg): somewhat less dramatic | Median Tumor Burden (mg) on day 18 (range) [1, 8]: 172 (63-965) mg | T-C [1, 8]: 9 days | Time to 1000 mg days (range) [1, 8]: 26.8 (18-28) days | Tumor Free on Day [1, 8]: 0/5 | Log Kill ([1]; group 4, total dosage 205 mg/kg IV, Td = 3.5 days): 0.8 | Percent Body Wt. Loss ([1]; group 6, tumor-bearing, IV QD 3-18, total dosage 102.5 mg/kg): no significant weight loss | Comments [1, 9]: Inactive | Median Tumor Burden (mg) on day 18 (range) [1, 9]: 617 (270-748) mg | Tumor Free on Day [1, 9]: 0/5 | histopathology of pancreas at necropsy (exocrine pancreas [2]; 4.3 mg/kg/day sc for 13 days, 52- to 64-days post-drug): moderate to severe atrophy of the exocrine pancreases | alopecia (exocrine pancreas [2]; [10]): also noted | diagnosis from pancreatic function tests (exocrine pancreas [2]; [10]): confirmed a diagnosis of exocrine pancreatic insufficiency | glucose tolerance test (endocrine pancreas) (exocrine pancreas [2]; [10]): “normal” response | post-feeding serum samples after a fatty meal (exocrine pancreas [2]; [10]): clear, indicating an inability to digest fats | clinical course (exocrine pancreas [2]; 4.3 mg/kg/day sc for 13 days, until euthanasia 52- to 64-days post-drug): continued to deteriorate | histology of pancreatic tissue samples (exocrine pancreas [2]; 10-days post-drug): no histological abnormalities | TLI (exocrine pancreas [2]; [11]): began to decrease | fecal trypsin test results (exocrine pancreas [2]; [11]): abnormal | body weight (exocrine pancreas [2]; approximately five weeks post-drug, 4.3 mg/kg/day sc for 13 days, both dogs of group): began losing weight very rapidly | frank and/or occult blood in stool, found until (exocrine pancreas [2]; [12]): about 17 days post-drug | loss of body weight at end of drug dosing period (exocrine pancreas [2]; [12]): 1.4 kg | clinical signs (exocrine pancreas [2]; dog #468, day thirteen of drug administration, 4.3 mg/kg/day sc, 4.3 mg/kg/day): bloody diarrhea and anorexia; also recorded: developed bloody diarrhea and stopped eating | blood glucose level in glucose tolerance test (exocrine pancreas [2]; dog #468, returned to normal during the 3.5 hours): exceeded 160 mg/dl | clinical signs (exocrine pancreas [2]; [13]): developed bloody diarrhea one-day post-drug | gain of body weight at end of drug dosing period (exocrine pancreas [2]; [13]): 0.4 kg | pancreas at necropsy, gross appearance (exocrine pancreas [2]; dogs #468 and 500, 52- and 58-days post-drug): greatly atrophied (about one-fourth the control weight) | Analogue level [3]: 4748 pmol/million cells | PUT, native polyamine level as % polyamine pools relative to untreated controls [3]: 0% | SPD, native polyamine level as % polyamine pools relative to untreated controls [3]: 21% | SPM, native polyamine level as % polyamine pools relative to untreated controls [3]: 82% | SGPT ([4]; dog #490, 4.3 mg/kg/day): 1108 U/L | alkaline phosphatase ([4]; dog #490, 4.3 mg/kg/day): 542 U/L | SGPT ([4]; dog #494, 4.3 mg/kg/day): 776 U/L | alkaline phosphatase ([4]; dog #494, 4.3 mg/kg/day): 436 U/L | SGPT (routine chemistry panel) [4, 14]: elevated | SGPT (blood chemistries) [4, 15]: elevated | pancreas at necropsy (exocrine pancreas [5]; 75-, 78-, 88- and 92-days post-treatment, all cases): Severe atrophy | histopathology of pancreatic sample (exocrine pancreas [5]; 75-days post-treatment sample): moderate to severe pancreatitis | trypsin-like immunoreactivity (TLI) (exocrine pancreas [5]; both dogs #490 and 494, 4.3 mg/kg/day, throughout Viokase and post-Viokase periods): below 2.0 ng/ml | serum trypsin-like immunoreactivity test (exocrine pancreas [5]; dog #516, 2.15 mg/kg/day): confirmed the presence of exocrine pancreatic insufficiency | pancreas at necropsy (exocrine pancreas [5]; dog #516, 2.15 mg/kg/day, 75-days post-drug): atrophied | body weight (exocrine pancreas [5]; [14]): begun losing weight | fecal check (fat in stool) (exocrine pancreas [5]; [14]): large amount of fat | qualitative fecal fat and trypsin-like immunoreactivity (exocrine pancreas [5]; dogs #490 and 494, 4.3 mg/kg/day): confirmed the presence of exocrine pancreatic insufficiency | weight loss (exocrine pancreas [5]; [15]): 2 kg | pancreas at necropsy (exocrine pancreas [5]; dogs #490 and 494, 4.3 mg/kg/day, one week after Viokase ceased): severely atrophied | glucose levels (endocrine functionality) (exocrine pancreas [5]; dogs #490 and 494, 4.3 mg/kg/day, throughout the experiment): normal | Percent Body Wt. Loss [6]: 30%

Source: patent publication US20080108706A1, “Chemical resection of pancreas” (priority 1999, published 2008)
